Assay results from patent US11472778B2, “Hepatitis C virus NS3/4A protease inhibitors” (priority 2017, dated 2022).
Read-outs that look alike come from different tables or passages of the source.

Experiments:
[1] = molecular target: T1, GT1a D168A NS3/4A protease (UniProt P27958, C1185S/D1194A, species not given); type: biochemical, Hepatitis C virus; conditions: read-out: Ki (nM) GT1a D168A NS3/4A Protease
T1 construct: Ki (nM) GT1a D168A NS3/4A Protease
Description: (§1) For each assay, 2 nM of NS3/4A protease (GT1, D168A and GT3) was pre-incubated at room temperature for 1 h with increasing concentration of inhibitors in assay buffer [50 mM Tris, 5% glycerol, 10 mM DTT, 0.6 mM LDAO, and 4% dimethyl sulfoxide]. Inhibition assays were performed in nonbinding surface 96-well black half-area plates (Corning) in a reaction volume of 60 μt. […] Three independent data sets were collected for each inhibitor with each protease construct.
as §1, with “(GT1a” for “(GT1, D168A”, “D168A)” for “GT3)”, “(50” for “[50”, “sulfoxide, pH 7.5).” for “sulfoxide].”, “non-binding” for “nonbinding”, “μL.” for “μt.”
(§2) For each assay, 2 nM of NS3/4A protease (GT1a, R155K and D168A) was pre-incubated at room temperature for 1 h with increasing concentration of inhibitors in assay buffer (50 mM Tris, 5% glycerol, 10 mM DTT, 0.6 mM LDAO, and 4% dimethyl sulfoxide, pH 7.5). Inhibition assays were performed in non-binding surface 96-well black half-area plates (Corning) in a reaction volume of 60 μL. […] Three independent data sets were collected for each inhibitor with each protease construct. […] Gibbs free energy of binding was calculated using the following equation: ΔG=RTlnKi

[2] = molecular target: T2, wild-type GT1a NS3/4A protease (UniProt P27958, C1185S, species not given); type: biochemical, Hepatitis C virus; conditions: read-out: Ki (nM) GT1a WT NS3/4A Protease
T2 construct: Ki (nM) GT1a WT NS3/4A Protease
Description: as §1
(§3) For each assay, 2 nM of NS3/4A protease (GT1a and D168A) was pre-incubated at room temperature for 1 h with increasing concentration of inhibitors in assay buffer (50 mM Tris, 5% glycerol, 10 mM DTT, 0.6 mM LDAO, and 4% dimethyl sulfoxide, pH 7.5). Inhibition assays were performed in non-binding surface 96-well black half-area plates (Corning) in a reaction volume of 60 μL. […] Three independent data sets were collected for each inhibitor with each protease construct.
as §2

[3] = molecular target: GT1a D168A NS3/4A protease; type: biochemical, Hepatitis C virus; conditions: Table 3; Ki D168A relative to GT1a WT
Description: as §1, §3, §2

[4] = test system: HCV replicon D168V variant in Huh7 cells; assay: microbe, parasite or virus in culture; type: cell-based, Hepatitis C virus; conditions: for EC50: Hepatitis C virus; for Replicon EC50 (Fold change) D168V: Table 4, relative to WT replicon
Description: (§4) Mutations (R155K, A516T, D168A and D168V) were constructed by site-directed mutagenesis using a Con1 (genotype 1b) luciferase reporter replicon containing the H77 (genotype 1a) NS3 sequence.
Replicon RNA of each protease variant was introduced into Huh7 cells by electroporation. Replication was then assessed in the presence of increasing concentrations of protease inhibitors by measuring luciferase activity (relative light units) 96 h after electroporation. […]

[5] = molecular target: T3, GT3a NS3/4A protease (Hepatitis C virus genotype 3a, UniProt Q81495); assay: biochemical; conditions: for Ki (Fold change) GT3a NS3/4A Protease: Table 3, Ki GT3a relative to GT1a WT
T3 construct: drug-resistant variant D168A, and GT3a NS3/4A protease; made in house; host or cells: Escherichia coli BL21(DE3)
T3 sequence (Q81495 1033-1214): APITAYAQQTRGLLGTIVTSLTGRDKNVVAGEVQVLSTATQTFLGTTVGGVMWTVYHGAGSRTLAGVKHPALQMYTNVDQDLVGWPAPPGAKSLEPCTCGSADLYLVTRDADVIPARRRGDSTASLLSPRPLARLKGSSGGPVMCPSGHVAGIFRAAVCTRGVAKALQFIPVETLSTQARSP
Description: as §1

[6] = test system: HCV replicon D168A variant in Huh7 cells; assay: microbe, parasite or virus in culture; type: cell-based, Hepatitis C virus; conditions: for EC50: Hepatitis C virus; for Replicon EC50 (Fold change) D168A: Table 4, relative to WT replicon
Description: as §4
(§5) Replicon RNA of each protease variant was introduced into Huh7 cells by electroporation. Replication was then assessed in the presence of increasing concentrations of protease inhibitors by measuring luciferase activity (relative light units) 96 h after electroporation.
(§6) Mutations (R155K, D168A and A156T) were constructed by site-directed mutagenesis using a Con1 (genotype 1b) luciferase reporter replicon containing the H77 (genotype 1a) NS3 sequence.^6 Replicon RNA of each protease variant was introduced into Huh7 cells by electroporation. Replication was then assessed in the presence of increasing concentrations of protease inhibitors by measuring luciferase activity (relative light units) 96 h after electroporation.

[7] = test system: HCV replicon A156T variant in Huh7 cells; assay: microbe, parasite or virus in culture; type: cell-based, Hepatitis C virus; conditions: for EC50: Hepatitis C virus; for Replicon EC50 (Fold change) A156T: Table 4, relative to WT replicon
Description: as §4, §5, §6

[8] = test system: HCV replicon R155K variant in Huh7 cells; assay: microbe, parasite or virus in culture; type: cell-based, Hepatitis C virus; conditions: for EC50: Hepatitis C virus; for Replicon EC50 (Fold change) R155K: Table 4, relative to WT replicon
Description: as §4, §5, §6

[9] = test system: wild-type HCV replicon in Huh7 cells; assay: Cell-based drug susceptibility (replicon) assay, wild-type; conditions: Hepatitis C virus, read-out: Replicon EC50 (nM) WT
Description: as §4, §5, §6

[10] = Huh-7, 96 h, read-out: Replicon EC50 (nM) D168V, Table 2, Huh7 cells, luciferase 96 h
[11] = Huh-7, read-out: Replicon EC50 (nM) D168V, Table 4
[12] = Huh-7, 96 h, read-out: Replicon EC50 (nM) D168A, Table 2, Huh7 cells, luciferase 96 h
[13] = Huh-7, read-out: Replicon EC50 (nM) D168A, Table 4
[14] = Huh-7, 96 h, read-out: Replicon EC50 (nM) A156T, Table 2, Huh7 cells, luciferase 96 h
[15] = Huh-7, read-out: Replicon EC50 (nM) A156T, Table 4
[16] = Huh-7, 96 h, read-out: Replicon EC50 (nM) R155K, Table 2, Huh7 cells, luciferase 96 h
[17] = Huh-7, read-out: Replicon EC50 (nM) R155K, Table 4
[18] = Huh-7, 96 h, Table 2, Huh7 cells, luciferase 96 h

Structure (SMILES) | Ki ([1]; Table 1) | Ki ([1]; Table 3) | Ki ([2]; Table 1) | Ki ([2]; Table 3) | Ki (Fold change) GT1a D168A NS3/4A Protease [3] | EC50 [4, 10] | EC50 [4, 11] | Replicon EC50 (Fold change) D168V [4] | Ki [5] | Ki (Fold change) GT3a NS3/4A Protease [5] | EC50 [6, 12] | EC50 [6, 13] | Replicon EC50 (Fold change) D168A [6] | EC50 [7, 14] | EC50 [7, 15] | Replicon EC50 (Fold change) A156T [7] | EC50 [8, 16] | EC50 [8, 17] | EC50 [9, 18] | EC50 ([9]; Huh-7, Table 4) | other results
COc1ccc2nc(C(F)(F)F)c(O[C@@H]3C[C@H]4C(=O)N[C@]5(C(=O)NS(=O)(=O)C6(C)CC6)C[C@H]5/C=C\CCCCC[C@H](NC(=O)OC5CCCC5)C(=O)N4C3)nc2c1 [Compound 23d, Cyclopentyl ((2R,6S,13aS,14aR,16aS,Z)-2-((7-methoxy-3-(trifluoromethyl)quinoxalin-2-yl)oxy)-14a-(((1-methylcyclopropyl)sulfonyl)carbamoyl)-5,16-dioxo-1,2,3,5,6,7,8,9,10,11,13a,14,14a,15,16,16a-hexadecahydrocyclopropa[e]pyrrolo[1,2-a][1,4]diazacyclopentadecin-6-yl)carbamate] | 110 nM | 110 ± 14 nM | 8.14 nM | 8.14 nM | (14) fold | 11.4 nM | 11.4 nM | (3) fold | 433 nM | (53) fold | 8.46 nM | 8.46 nM | (2) fold | 75.9 nM | 75.9 nM | (19) fold | 6.9 nM | 6.9 nM | 4.04 nM | 4.04 nM | Replicon EC50 (Fold change) R155K [8]: (2) fold
COc1ccc2nc(C)c(O[C@@H]3C[C@H]4C(=O)N[C@]5(C(=O)NS(=O)(=O)C6CC6)C[C@H]5/C=C\CCCCC[C@H](NC(=O)OC5CCCC5)C(=O)N4C3)nc2c1 [Compound 22b, Cyclopentyl ((2R,6S,13aS,14aR,16aS,Z)-14a-((cyclopropylsulfonyl)carbamoyl)-2-((7-methoxy-3-methylquinoxalin-2-yl)oxy)-5,16-dioxo-1,2,3,5,6,7,8,9,10,11,13a,14,14a,15,16,16a-hexadecahydrocyclopropa[e]pyrrolo[1,2-a][1,4]diazacyclopentadecin-6-yl)carbamate] | 31.9 nM | 31.9 ± 2.5 nM | 0.93 nM | 0.93 nM | (34) fold | 4.32 nM | 4.32 nM | (39) fold | 147 nM | (158) fold | 2.63 nM | 2.63 nM | (24) fold | 2.88 nM | 2.88 nM | (26) fold | 0.89 nM | 0.89 nM | 0.11 nM | 0.11 nM | Replicon EC50 (Fold change) R155K [8]: (8) fold
CCc1nc2ccc(OC)cc2nc1O[C@@H]1C[C@H]2C(=O)N[C@]3(C(=O)NS(=O)(=O)C4(C)CC4)C[C@H]3/C=C\CCCCC[C@H](NC(=O)OC3CCCC3)C(=O)N2C1 [Compound 23a, Cyclopentyl ((2R,6S,13aS,14aR,16aS,Z)-2-((3-ethyl-7-methoxyquinoxalin-2-yl)oxy)-14a-(((1-methylcyclopropyl)sulfonyl)carbamoyl)-5,16-dioxo-1,2,3,5,6,7,8,9,10,11,13a,14,14a,15,16,16a-hexadecahydrocyclopropa[e]pyrrolo[1,2-a][1,4]diazacyclopentadecin-6-yl)carbamate] | 55.2 nM | 55.2 ± 5.3 nM | 1.37 nM | 1.37 nM | (40) fold | 7.08 nM | 7.08 nM | (44) fold | 186 nM | (136) fold | 3.45 nM | 3.45 nM | (22) fold | 10.6 nM | 10.6 nM | (66) fold | 2.07 nM | 2.07 nM | 0.16 nM | 0.16 nM | Replicon EC50 (Fold change) R155K [8]: (13) fold
COc1ccc2nc(Cl)c(O[C@@H]3C[C@H]4C(=O)N[C@]5(C(=O)NS(=O)(=O)C6CC6)C[C@H]5/C=C\CCCCC[C@H](NC(=O)OC5CCCC5)C(=O)N4C3)nc2c1 [Compound 22c, Cyclopentyl ((2R,6S,13aS,14aR,16aS,Z)-2-((3-chloro-7-methoxyquinoxalin-2-yl)oxy)-14a-((cyclopropylsulfonyl)carbamoyl)-5,16-dioxo-1,2,3,5,6,7,8,9,10,11,13a,14,14a,15,16,16a-hexadecahydrocyclopropa[e]pyrrolo[1,2-a][1,4]diazacyclopentadecin-6-yl)carbamate] | 30.6 nM | 30.6 ± 2.6 nM | 0.49 nM | 0.49 nM | (62) fold | 1.55 nM | 1.55 nM | (10) fold | 85.6 nM | (175) fold | 1.32 nM | 1.32 nM | (9) fold | 3.55 nM | 3.55 nM | (24) fold | 0.59 nM | 0.59 nM | 0.15 nM | 0.15 nM | Replicon EC50 (Fold change) R155K [8]: (4) fold
COc1ccc2nc(C)c(O[C@@H]3C[C@H]4C(=O)N[C@]5(C(=O)NS(=O)(=O)C6(C)CC6)C[C@H]5/C=C\CCCCC[C@H](NC(=O)OC5CCCC5)C(=O)N4C3)nc2c1 [Compound 23b, Cyclopentyl ((2R,6S,13aS,14aR,16aS,Z)-2-((7-methoxy-3-methylquinoxalin-2-yl)oxy)-14a-(((1-methylcyclopropyl)sulfonyl)carbamoyl)-5,16-dioxo-1,2,3,5,6,7,8,9,10,11,13a,14,14a,15,16,16a-hexadecahydrocyclopropa[e]pyrrolo[1,2-a][1,4]diazacyclopentadecin-6-yl)carbamate] | 36.3 nM | 36.3 ± 1.8 nM | 1.13 nM | 1.13 nM | – | – | – | – | 121 nM | – | 2.16 nM | 2.16 nM | – | 3.99 nM | 3.99 nM | – | 1.09 nM | 1.09 nM | 0.13 nM | 0.13 nM | –
